Data: the METLIN SMRT retention time set (Domingo-Almenara et al. 2019)

Assay: gradient 5% acetonitrile 3 min, to 50% in 2 min, to 85% in 15 min, held 3 min, 100 µL/min
Settings: column: Zorbax Extend-C18 2.1 x 50 mm; eluents: water / acetonitrile, 0.1% formic acid
In short: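 Retention time was recorded from adduct peaks, which were picked computationally and each inspected manually. Pure standards ran in mixtures of ~100 molecules on HPLC coupled to a quadrupole time-of-flight mass spectrometer, in positive and negative ionization mode, through a Zorbax Extend-C18 column (2.1 × 50 mm, 1.8 μm) at 100 μL/min. Eluents were water and acetonitrile, each with 0.1% formic acid.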

Row | RP-LC retention time | Compound
1 | 590 s | Cn1c(N2CCCC(C(=O)NCC3CCN(Cc4ccc(F)cc4)CC3)C2)cc(=O)n(C)c1=O (configuration not stated)
2 | 644 s | Cc1ccc(-c2nnc(N3CCC(C(=O)N4CCN(C5CCCCC5)CC4)CC3)o2)cc1
3 | 933 s | COc1ccc(NC(=O)N2c3ccccc3CC2c2nc(C3CC3)no2)cc1OC (configuration not stated)
4 | 934 s | COc1ccc(NC(=O)NC(C(=O)N2CCc3ccccc32)C(C)C)c(OC)c1 (configuration not stated)
5 | 1030 s | O=c1n(Cc2cccc(F)c2)nc2c(-c3nc(-c4cccc(F)c4)no3)cccn12
6 | 623 s | Cn1cc(-c2cc3n(n2)CCCN3C(=O)CCC(=O)NCCCN2CCCCC2)c2ccccc21
7 | 1060 s | O=C(Nc1ccccc1)C1CCCN(c2nccnc2Sc2ccccc2)C1 (configuration not stated)
8 | 1030 s | CCCCN1N=C(C(=O)N2CCCCCC2)S(=O)(=O)c2ccccc21
9 | 629 s | Cc1cc(C(=O)N2CCCn3nc(-c4ccc(F)cc4)cc3C2)nn1C
10 | 680 s | COCCNC(=O)c1ccc(OC2CCN(CC(c3ccccc3)c3ccccc3)CC2)c(OC)c1
11 | 1150 s | CC1CCN(S(=O)(=O)c2cccc(-c3nnc(-c4ccc(F)cc4)o3)c2)CC1
12 | 720 s | COc1ccc(NC(=O)NC2CCN(c3ccc(C)cc3)C2=O)cc1OC (configuration not stated)
13 | 581 s | O=C(CCc1nnc2ccc(N3CCC4(CC3)OCCO4)nn12)N1CCN(c2ccccn2)CC1
14 | 651 s | O=C(CN1C(=O)c2cccc3cccc(c23)C1=O)NCC1CCCO1 (configuration not stated)
15 | 711 s | Cc1ccn2cc(-c3ccc(NC(=O)Nc4ccc(Cl)cc4)cc3)nc2n1
16 | 637 s | O=C(c1ccc2c(c1)OCO2)N1C[C@H]2C[C@H](C1)[C@H]1CCCC(=O)N1C2
17 | 628 s | Cc1ncn(CC(=O)Nc2ccccc2F)c(=O)c1C
18 | 814 s | O=C(N1CC(c2nc(-c3cccs3)no2)C1)C1(c2ccccc2)CCOCC1
19 | 629 s | COc1cc(-c2nc3ccccn3c2Nc2ccc3c(c2)OCCO3)ccc1O
20 | 1140 s | COc1ccc(S(=O)(=O)N2CCc3nc(-c4ccc(F)cc4)ncc3C2)cc1Cl
21 | 642 s | COc1cccc(CNC(=O)C2CCN(c3nnc4cccc(C)n34)CC2)c1
22 | 809 s | CC(C)CCNC(=O)C1CC(=O)N(CCc2c[nH]c3ccc(Cl)cc23)C1 (configuration not stated)

Row | RP-LC retention time | Compound
23 | 526 s | CONC(=O)Cc1csc(Nc2cc(C)ccn2)n1
24 | 1030 s | Cc1ccccc1CNC(=O)C1(C)CCN(S(=O)(=O)c2ccc(Br)cc2)CC1
25 | 715 s | O=C(Cn1nc2c(cc1=O)CCCC2)Nc1cccc(N2CCCCS2(=O)=O)c1
26 | 1330 s | Cc1ccccc1-c1csc(Cc2nc(-c3ccc(Cl)cc3)no2)n1
27 | 1360 s | Cc1cc(Cl)ccc1NS(=O)(=O)c1cc(-c2nc(C(C)(C)C)cs2)cs1
28 | 608 s | CCNc1cc(N2CCCC(CCC(=O)N3CCCN(c4ncccn4)CC3)C2)ncn1 (configuration not stated)
29 | 945 s | CC(C)(C)C(=O)Nc1ccc(SCc2nnc(-c3ccc4c(c3)OCO4)o2)cc1
30 | 714 s | CCc1nc2cc(N3CCC(C(=O)N4CCCC4)CC3)cnc2nc1CC
31 | 949 s | CCN(CC)S(=O)(=O)c1ccc2c(c1)N(CC(=O)NCc1cccs1)C(=O)C1CCCCN21 (configuration not stated)
32 | 738 s | O=C(NCCc1nc2cccnc2n1Cc1ccccc1)NCc1ccc(F)cc1
33 | 666 s | NC(=O)C1CCN(C(=O)c2cc3cccnc3n(Cc3ccccc3F)c2=O)CC1
34 | 884 s | C=Cc1ccc(CSc2nnc3c(S(=O)(=O)N4CCCC4)cccn23)cc1
35 | 1100 s | CCCN1CCCCc2cc(C(=O)NCC(C)C)sc21
36 | 743 s | O=C(C1CC1)N1CCc2sc(S(=O)(=O)Nc3ccc(N4CCOCC4)cc3)cc2C1
37 | 1250 s | CC(C)(C)c1ccc(-c2nc(C3CC(=O)N(c4ccc(F)cc4)C3)no2)cc1 (configuration not stated)
38 | 550 s | CCNc1cc(N2CCCC(CCC(=O)NCCN3CCCCCC3)C2)ncn1 (configuration not stated)
39 | 844 s | CN(C)S(=O)(=O)c1ccc(-c2nnc(C(=O)NCc3ccc(F)cc3)o2)cc1
40 | 760 s | O=C(C1CCN(c2nnc(-c3ccccc3)o2)CC1)N1CCCCC1
41 | 1090 s | CC1(C(=O)NCc2ccccc2)CN(S(=O)(=O)c2ccccc2)CC(=O)N1CCC1=CCCCC1 (configuration not stated)
42 | 722 s | Cc1nnc(N2CCCC(C(=O)NCc3ccccc3F)C2)c2nn(-c3ccccc3)c(C)c12 (configuration not stated)
43 | 574 s | CCN(CC)C(=O)c1cnc2nc(C)ccc2c1Nc1ccc(S(N)(=O)=O)cc1
44 | 805 s | NC(=O)c1oc2ccccc2c1NC(=O)c1cc(=O)c2ccccc2o1

Row | RP-LC retention time | Compound
45 | 968 s | Cc1ccc(-c2nc(-c3ccc4nnc(C)n4c3)no2)cc1
46 | 612 s | COc1ccc(-n2cc(C(=O)N3CCC(C(N)=O)CC3)nn2)cc1
47 | 856 s | COc1ccc(NC(=O)c2cnc3c(c2)c(=O)n(C)c(=O)n3-c2ccc(F)cc2)cc1
48 | 655 s | CCOC(=O)C(=O)NCc1nnnn1C1CCCCC1
49 | 942 s | O=C(O)Cc1sc(Nc2ccccc2Cl)nc1-c1ccccc1
50 | 1110 s | COc1ccc2oc(-c3csc(NC(=O)c4ccc([N+](=O)[O-])s4)n3)cc2c1
51 | 1150 s | O=c1c2cc(-c3ccc(F)cc3)nn2ccn1Cc1nc(-c2cccc(Br)c2)no1
52 | 726 s | CCN(CC)C(=O)c1ccc(-c2nc3cc(NS(=O)(=O)c4ccc(C)c(C)c4)ccc3n2C)cc1
53 | 590 s | O=C(Nc1cccc(-c2nnc3n2CCCC3)c1)c1cc(C2CC2)[nH]n1
54 | 984 s | Cc1cccc(-c2nc3nc(C)cc(Nc4cccc5nsnc45)n3n2)c1
55 | 790 s | CCC(C)Nc1nc(NC)nc(-n2cnc(SC)n2)n1 (configuration not stated)
56 | 634 s | Cc1ccc(-c2nc(Cn3ccnc3C)no2)cc1
57 | 580 s | Cc1cc(N2CCCCC2)nc(NCCNC(=O)Cc2noc3ccccc23)n1
58 | 615 s | O=C(CCc1nnn2c1CN(C(=O)c1ccccc1F)CC2)NC1CC1
59 | 1010 s | O=c1n(Cc2cccc(Cl)c2)nc2c(S(=O)(=O)N3CCc4ccccc4C3)cccn12
60 | 655 s | COc1ccc(CC(=O)Nc2nnc(-c3ccsc3)o2)cc1OC
61 | 868 s | CC(C)Cn1cc(CCNC(=O)c2cc(F)ccc2F)c2cccnc21
62 | 790 s | Cc1noc2nc(CCC(=O)NC(C)c3ccccc3)nc(N3CCCC3)c12 (configuration not stated)
63 | 596 s | O=C(NCC1(N2CCOCC2)CCOC1)Nc1ccccc1C(F)(F)F (configuration not stated)
64 | 660 s | O=C(NCC1CC1)c1c(-c2ccccc2)cc(=O)n2c1CCC2
65 | 588 s | O=C1CN(c2ccccc2NC(=O)c2ccc[nH]c2=O)CCN1
66 | 962 s | O=C(NCc1nc(-c2ccc(N3CCCC3)cc2)no1)c1cccs1

Row | RP-LC retention time | Compound
67 | 620 s | CNC(=O)[C@@H](NC(=O)[C@H](CC(C)C)[C@H](O)C(=O)NO)C(C)(C)C
68 | 649 s | COc1c(S(=O)(=O)Nc2cccnc2)ccc(Cl)c1Cl
69 | 820 s | O=C(NC1CC1)c1ccc(OCC2CCCN(C(=O)c3cc(F)ccc3F)C2)cc1 (configuration not stated)
70 | 996 s | COc1ccc(-c2ncc3c(n2)CCN(C(=O)Nc2ccc(C)c(F)c2)C3)cc1
71 | 754 s | O=C(CCCSc1ccc(NC(=O)C2CC2)nn1)NCc1ccccc1Cl
72 | 785 s | CCC(=O)N1c2ccc(S(=O)(=O)CCC(=O)N3CCN(c4ccc(OC)cc4)CC3)cc2CC1C (configuration not stated)
73 | 1070 s | Cc1ccc(-c2csc(NC(=O)c3c(-c4ccc(F)cc4)nc4n3CCS4(=O)=O)n2)cc1
74 | 648 s | Cc1ccc(-n2ncc3c(NCCN(C)C)ncnc32)cc1C
75 | 627 s | Cn1ccnc1C(=O)N1CCCCCCNC(=O)[C@@H]2CCCC[C@@H]21
76 | 678 s | COc1ccc(C(C)NC(=O)Cc2cn(C)c3ncccc23)cc1 (configuration not stated)
77 | 642 s | CCc1ccc2oc(C(=O)NCC(c3ccccc3)N(C)C)cc(=O)c2c1 (configuration not stated)
78 | 921 s | CCn1cc(-c2nc(CC(=O)N3CCN(c4ccc(F)cc4)CC3)cs2)c2cccnc21
79 | 786 s | CCCc1nnsc1C(=O)Nc1ccc2c(c1)CN(C(=O)c1ccco1)CC2
80 | 661 s | Cc1cccc(NC(=O)NCC(c2cccnc2)c2c[nH]c3ccccc23)c1C (configuration not stated)
81 | 749 s | O=C(c1ccc2ccnc(N3CCN(c4ccc(F)cc4)CC3)c2c1)N1CCN(c2ncccn2)CC1
82 | 957 s | CC1=NS(=O)(=O)N(C)C=C1C(=O)OCc1cc(C)ccc1C
83 | 794 s | Cn1nccc1C(=O)N1CCCC1c1nc(-c2ccc(F)cc2F)no1 (configuration not stated)
84 | 682 s | Cc1ccc(-c2nccn3cc(C(=O)N4CCN(C5CCCCC5)CC4)nc23)cc1
85 | 582 s | CCCN1CCN(C(=O)C2CCCN(c3nnc(C)c4c(C)n(-c5ccccc5)nc34)C2)CC1 (configuration not stated)

Row | Compound | RP-LC retention time
86 | Cc1nc(-c2csc(S(=O)(=O)N3CCCC(C(=O)N4CCC5(CC4)OCCO5)C3)c2)no1 (configuration not stated) | 798 s
87 | CO[C@@H]1C(O)[C@H](O[C@H]2CC[C@@]3(C=O)[C@H](CC[C@@H]4[C@@H]3CC[C@]3(C)[C@@H](C5=CC(=O)OC5)CC[C@]43O)C2)OC(C)[C@@H]1O (some centres not stated) | 772 s
